Results reported in PubChem BioAssay (NCI).
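Grown in 96-well plates, cells were treated for 48 hours with each compound at five concentrations. Insufficient inhibition: endpoint recorded as highest concentration tested. Here, GI50 denotes the concentration required for 50% inhibition of growth. TGI: total growth inhibition.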

Tests used:
Assay in all cases: NCI tumour cell line growth inhibition, 48 h
OVCAR-8 ovarian = tested on: OVCAR-8 ovarian
KM12 colon = tested on: KM12 colon
ACHN renal = tested on: ACHN renal
TK-10 renal = tested on: TK-10 renal
NCI-H522 lung = tested on: NCI-H522 lung
LOX IMVI melanoma = tested on: LOX IMVI melanoma
HOP-62 NSCLC = tested on: HOP-62 NSCLC
RXF 393 renal = tested on: RXF 393 renal
SW-620 colon = tested on: SW-620 colon
UACC-62 melanoma = tested on: UACC-62 melanoma
HL-60(TB) leukemia = tested on: HL-60(TB) leukemia
HCT-15 colon = tested on: HCT-15 colon
SK-MEL-5 melanoma = tested on: SK-MEL-5 melanoma
U251 CNS = tested on: U251 CNS
OVCAR-4 ovarian = tested on: OVCAR-4 ovarian
HCT-116 colon = tested on: HCT-116 colon
SK-MEL-28 melanoma = tested on: SK-MEL-28 melanoma
SN12C renal = tested on: SN12C renal
SR leukemia = tested on: SR leukemia
MCF7 breast = tested on: MCF7 breast
NCI-H226 lung = tested on: NCI-H226 lung
786-0 renal = tested on: 786-0 renal
IGROV1 ovarian = tested on: IGROV1 ovarian
T-47D breast = tested on: T-47D breast
CAKI-1 renal = tested on: CAKI-1 renal
NCI/ADR-RES ovarian = tested on: NCI/ADR-RES ovarian
K-562 leukemia = tested on: K-562 leukemia
CCRF-CEM leukemia = tested on: CCRF-CEM leukemia
PC-3 prostate = tested on: PC-3 prostate
SNB-75 CNS = tested on: SNB-75 CNS
OVCAR-3 ovarian = tested on: OVCAR-3 ovarian
HCC-2998 colon = tested on: HCC-2998 colon
SK-OV-3 ovarian = tested on: SK-OV-3 ovarian
MOLT-4 leukemia = tested on: MOLT-4 leukemia
MALME-3M melanoma = tested on: MALME-3M melanoma
SNB-19 CNS = tested on: SNB-19 CNS
OVCAR-5 ovarian = tested on: OVCAR-5 ovarian
HS 578T breast = tested on: HS 578T breast
SF-295 CNS = tested on: SF-295 CNS
NCI-H460 lung = tested on: NCI-H460 lung
COLO 205 colon = tested on: COLO 205 colon
UACC-257 melanoma = tested on: UACC-257 melanoma
NCI-H23 lung = tested on: NCI-H23 lung
M14 melanoma = tested on: M14 melanoma
SF-539 CNS = tested on: SF-539 CNS
HOP-92 NSCLC = tested on: HOP-92 NSCLC
SF-268 CNS = tested on: SF-268 CNS
HT29 colon = tested on: HT29 colon
MDA-MB-231 breast = tested on: MDA-MB-231 breast
MDA-MB-435 = tested on: MDA-MB-435
A498 renal = tested on: A498 renal
RPMI-8226 leukemia = tested on: RPMI-8226 leukemia
UO-31 renal = tested on: UO-31 renal
EKVX NSCLC = tested on: EKVX NSCLC
SK-MEL-2 melanoma = tested on: SK-MEL-2 melanoma
BT-549 breast = tested on: BT-549 breast
A549 NSCLC = tested on: A549 NSCLC
DU-145 prostate = tested on: DU-145 prostate

Work on `CCC(=C(c1ccc(OCCN2CCCCCC2)cc1)c1ccc(OCCN2CCCCCC2)cc1)c1ccc(Cl)cc1` yielded a GI50 (OVCAR-8 ovarian) of 4280 nM, a TGI (OVCAR-8 ovarian) of 9410 nM and a GI50 (KM12 colon) of 1060 nM. For the same compound, the TGI (KM12 colon) was 3600 nM, the GI50 (ACHN renal) was 1550 nM and the TGI (ACHN renal) was 5790 nM. For the same compound, the GI50 (TK-10 renal) was 4370 nM, the TGI (TK-10 renal) was 9000 nM and the GI50 (NCI-H522 lung) was 3540 nM. For the same compound, the TGI (NCI-H522 lung) was 8210 nM, the GI50 (LOX IMVI melanoma) was 502 nM and the TGI (LOX IMVI melanoma) was 1010 nM. The GI50 (HOP-62 NSCLC) was 2640 nM, the TGI (HOP-62 NSCLC) was 7580 nM and the GI50 (RXF 393 renal) was 754 nM. It also gave a TGI (RXF 393 renal) of 2250 nM, a GI50 (SW-620 colon) of 555 nM and a TGI (SW-620 colon) of 1210 nM. For the same compound, the GI50 (UACC-62 melanoma) was 664 nM, the TGI (UACC-62 melanoma) was 1680 nM and the GI50 (HL-60(TB) leukemia) was 683 nM. The TGI (HL-60(TB) leukemia) was 1600 nM, the GI50 (HCT-15 colon) was 631 nM and the TGI (HCT-15 colon) was 1450 nM. The GI50 (SK-MEL-5 melanoma) was 722 nM, the TGI (SK-MEL-5 melanoma) was 1730 nM and the GI50 (U251 CNS) was 597 nM. The TGI (U251 CNS) was 1150 nM, the GI50 (OVCAR-4 ovarian) was 3900 nM and the TGI (OVCAR-4 ovarian) was 8710 nM. It also gave a GI50 (HCT-116 colon) of 582 nM, a TGI (HCT-116 colon) of 1360 nM and a GI50 (SK-MEL-28 melanoma) of 623 nM. For the same compound, the TGI (SK-MEL-28 melanoma) was 1200 nM, the GI50 (SN12C renal) was 3440 nM and the TGI (SN12C renal) was 8580 nM. It also gave a GI50 (SR leukemia) of 585 nM, a TGI (SR leukemia) of 1340 nM and a GI50 (MCF7 breast) of 91.6 nM. The TGI (MCF7 breast) was 785 nM, the GI50 (NCI-H226 lung) was 4480 nM and the TGI (NCI-H226 lung) was 9560 nM. It also gave a GI50 (786-0 renal) of 578 nM, a TGI (786-0 renal) of 1180 nM and a GI50 (IGROV1 ovarian) of 1350 nM. It also gave a TGI (IGROV1 ovarian) of 5210 nM, a GI50 (T-47D breast) of 649 nM and a TGI (T-47D breast) of 5310 nM. The GI50 (CAKI-1 renal) was 1000 nM, the TGI (CAKI-1 renal) was 4490 nM and the GI50 (NCI/ADR-RES ovarian) was 1930 nM. The TGI (NCI/ADR-RES ovarian) was 6520 nM, the GI50 (K-562 leukemia) was 424 nM and the TGI (K-562 leukemia) was 1030 nM. For the same compound, the GI50 (CCRF-CEM leukemia) was 657 nM, the TGI (CCRF-CEM leukemia) was 1790 nM and the GI50 (PC-3 prostate) was 1700 nM. For the same compound, the TGI (PC-3 prostate) was 6140 nM, the GI50 (SNB-75 CNS) was 1970 nM and the TGI (SNB-75 CNS) was 6850 nM. The GI50 (OVCAR-3 ovarian) was 947 nM, the TGI (OVCAR-3 ovarian) was 3010 nM and the GI50 (HCC-2998 colon) was 553 nM. The TGI (HCC-2998 colon) was 1130 nM, the GI50 (SK-OV-3 ovarian) was 4230 nM and the TGI (SK-OV-3 ovarian) was 8590 nM. For the same compound, the GI50 (MOLT-4 leukemia) was 685 nM, the TGI (MOLT-4 leukemia) was 1740 nM and the GI50 (MALME-3M melanoma) was 576 nM. The TGI (MALME-3M melanoma) was 1270 nM, the GI50 (SNB-19 CNS) was 833 nM and the TGI (SNB-19 CNS) was 2340 nM. For the same compound, the GI50 (OVCAR-5 ovarian) was 3730 nM, the TGI (OVCAR-5 ovarian) was 8250 nM and the GI50 (HS 578T breast) was 727 nM. The TGI (HS 578T breast) was 1870 nM, the GI50 (SF-295 CNS) was 644 nM and the TGI (SF-295 CNS) was 1310 nM. For the same compound, the GI50 (NCI-H460 lung) was 645 nM, the TGI (NCI-H460 lung) was 1250 nM and the GI50 (COLO 205 colon) was 586 nM. The TGI (COLO 205 colon) was 1210 nM, the GI50 (UACC-257 melanoma) was 651 nM and the TGI (UACC-257 melanoma) was 1400 nM. It also gave a GI50 (NCI-H23 lung) of 3670 nM, a TGI (NCI-H23 lung) of 8190 nM and a GI50 (M14 melanoma) of 639 nM. It also gave a TGI (M14 melanoma) of 1300 nM, a GI50 (SF-539 CNS) of 643 nM and a TGI (SF-539 CNS) of 1370 nM. For the same compound, the GI50 (HOP-92 NSCLC) was 1340 nM, the TGI (HOP-92 NSCLC) was 6070 nM and the GI50 (SF-268 CNS) was 2330 nM. The TGI (SF-268 CNS) was 7470 nM, the GI50 (HT29 colon) was 652 nM and the TGI (HT29 colon) was 1410 nM. It also gave a GI50 (MDA-MB-231 breast) of 2060 nM, a TGI (MDA-MB-231 breast) of 7760 nM and a GI50 (MDA-MB-435) of 644 nM. For the same compound, the TGI (MDA-MB-435) was 1360 nM, the GI50 (A498 renal) was 4880 nM and the TGI (A498 renal) was 9720 nM. It also gave a GI50 (RPMI-8226 leukemia) of 749 nM, a TGI (RPMI-8226 leukemia) of 1640 nM and a GI50 (UO-31 renal) of 1720 nM. The TGI (UO-31 renal) was 6670 nM, the GI50 (EKVX NSCLC) was 3520 nM and the TGI (EKVX NSCLC) was 8010 nM. The GI50 (SK-MEL-2 melanoma) was 3960 nM, the TGI (SK-MEL-2 melanoma) was 8630 nM and the GI50 (BT-549 breast) was 3380 nM. The TGI (BT-549 breast) was 7520 nM, the GI50 (A549 NSCLC) was 1110 nM and the TGI (A549 NSCLC) was 4210 nM. It also gave a GI50 (DU-145 prostate) of 1360 nM and a TGI (DU-145 prostate) of 5020 nM.
